Some test systems named below: RXF-631 renal; XF 498 CNS; DMS 114 small cell lung; DLD-1 colon; SNB-78 CNS; HOP-18 NSCLC; LXFL 529 NSCLC; P388 leukemia; P388/ADR leukemia; SN12K1 renal.
Assay in all cases: NCI tumour cell line growth inhibition, 48 h

SMILES strings stand for the structures.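 Growth conditions: 96-well plates. Treatment: test compound, 48 hours, 5 concentrations. Analysis: linear interpolation between bracketing concentrations; unreached endpoints set to highest concentration. TGI is the concentration that stops growth completely.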

For the compound `CCN(/N=C1\CC2C=CCN(C2)C(=O)Cc2c1[nH]c1ccccc21)S(=O)(=O)c1ccc(C)cc1` (stereo not given), the TGI in the assay on RXF-631 renal, in the assay with XF 498 CNS, with DMS 114 small cell lung and in the assay with DLD-1 colon was greater than 100 µM in each case.
For `C/C(CCN(C)C)=N\OC(=O)c1ccccc1`, the TGI in the assay with SNB-78 CNS was greater than 100 µM; in the assay on DMS 114 small cell lung, greater than 100 µM; in the assay with DLD-1 colon, greater than 100 µM; in the assay on HOP-18 NSCLC, 8.9 µM; in the assay on LXFL 529 NSCLC it was greater than 100 µM.
On to `NC(CSCSCC(N)C(=O)O)C(=O)O` (stereo not given), for which the TGI was greater than 104 µM in the assay on SNB-78 CNS; greater than 71.2 µM in the assay with P388 leukemia; greater than 225 µM in the assay with P388/ADR leukemia; greater than 225 µM in the assay with XF 498 CNS; greater than 225 µM in the assay with SN12K1 renal; greater than 225 µM in the assay with DMS 114 small cell lung. Moreover, the TGI with DLD-1 colon and with HOP-18 NSCLC was greater than 225 µM throughout.
Turning to `CC(C)C(CCOS(=O)(=O)O)CCC(C)[C@H]1[C@@H](O)C(O)C2[C@]3(O)C[C@@H](O)C4(O)C[C@@H](O)CC[C@]4(C)C3CC[C@@]21C` (stereo not given in full), the TGI with SNB-78 CNS, in the assay with XF 498 CNS, with DMS 114 small cell lung, in the assay on DLD-1 colon, in the assay on HOP-18 NSCLC and in the assay on LXFL 529 NSCLC was greater than 100 µM throughout.
On to `N#C/C(=C\c1ccc[nH]1)C(=O)c1ccccc1`, for which the TGI in the assay on SNB-78 CNS, in the assay with RXF-631 renal, with DMS 114 small cell lung, in the assay on DLD-1 colon, in the assay with HOP-18 NSCLC and in the assay with LXFL 529 NSCLC was greater than 100 µM in each case.
`C[C@]12CCc3nn(-c4ccccc4)nc3C1CC[C@@H]1C2CC[C@]2(C)C(=O)CCC12` (stereo not given in full): the TGI in the assay on SNB-78 CNS, in the assay on DMS 114 small cell lung, with DLD-1 colon, in the assay with HOP-18 NSCLC and with LXFL 529 NSCLC was greater than 100 µM in each case.
As for `COc1ccc(-c2cc(=O)c3cc(O)ccc3o2)c(OC)c1OC`, the TGI with RXF-631 renal, in the assay with XF 498 CNS, with DMS 114 small cell lung, in the assay on DLD-1 colon and in the assay on LXFL 529 NSCLC was greater than 100 µM throughout.
For `C=C1CN2CCc3c([nH]c4ccccc34)C2CC1CC(=O)N(C)C` (stereo not given), the TGI with XF 498 CNS, in the assay on DMS 114 small cell lung, in the assay with DLD-1 colon, with HOP-18 NSCLC and in the assay on LXFL 529 NSCLC was greater than 309 µM each time.
On to `COC(=O)C1=CCC2c3[nH]c4ccccc4c3CCN2C1` (stereo not given), for which the TGI in the assay with DMS 114 small cell lung, with DLD-1 colon and in the assay with LXFL 529 NSCLC was greater than 354 µM in each case.
Consider `CSC1=Nc2ccccc2N=C(c2ccccc2)C1`, for which the TGI in the assay on SNB-78 CNS was greater than 100 µM; with RXF-631 renal it was greater than 100 µM; with XF 498 CNS, greater than 100 µM; in the assay on DMS 114 small cell lung it was 65.5 µM; in the assay on DLD-1 colon it was greater than 100 µM; with HOP-18 NSCLC, greater than 100 µM. In the assay with LXFL 529 NSCLC, the TGI was greater than 100 µM.
For the compound `CC(N)C(C)c1ccccc1` (stereo not given), the TGI with SNB-78 CNS, in the assay with XF 498 CNS, in the assay with DMS 114 small cell lung, in the assay with DLD-1 colon, with HOP-18 NSCLC and in the assay on LXFL 529 NSCLC was greater than 100 µM in each case.
Take `Cn1c(=O)n(C2(C)CSC2)c2ccccc21`: the TGI in the assay with XF 498 CNS, with DMS 114 small cell lung, in the assay on DLD-1 colon and in the assay on LXFL 529 NSCLC was greater than 100 µM each time.
`O=c1oc2ccccc2n1P(=O)(Oc1ccc(Cl)cc1)n1c(=O)oc2ccccc21`: the TGI in the assay on SNB-78 CNS, with DMS 114 small cell lung, in the assay with DLD-1 colon and in the assay on HOP-18 NSCLC was greater than 100 µM in each case.
`CC#CC#C/C=C1\C=CC2(OC=CC2O)O1` (stereo not given): the TGI is greater than 7.37 µM with SNB-78 CNS; greater than 23.3 µM in the assay with XF 498 CNS; greater than 22.5 µM in the assay with DMS 114 small cell lung; greater than 23.3 µM in the assay with DLD-1 colon; 14.9 µM in the assay with HOP-18 NSCLC; greater than 23.3 µM with LXFL 529 NSCLC.
Consider `CC1CCc2c(sc3ncnc(N/N=C/c4ccc(Cl)cc4)c23)C1` (stereo not given), for which, in the assay with DLD-1 colon, the TGI is greater than 100 µM.

The record behind these values is PubChem BioAssay (NCI).
